Bridge positions count the residues as written; N and C are the ends. Square brackets hold non-standard residues; d marks the D form. Peptide text beside a SMILES is read from it. * marks the point of attachment. 5TAMRA = CN(C)c1ccc2c(c1)Oc1cc(N(C)C)ccc1C21OC(=O)c2cc(C(=O)*)ccc21; 2Nal = N[C@@H](Cc1ccc2ccccc2c1)C(=O)O; Pen = CC(C)(S)[C@H](N)C(=O)O; Aib = CC(C)(N)C(=O)O
Key:
[1] = molecular target: T1, NL-IL12Rβ1 with IL23R (Homo sapiens, UniProt Q5VWK5); assay: P630-TMR NanoBRET binding assay, NL-IL12Rβ1 with IL23R; details: for BRET ratio, Non-specific (Mean): Fig. 2e, with 10 μM P630; for % maximum BRET ratio (Mean): Figure 2 sheet Panel g; for % maximum BRET ratio (Mean) / BRET ratio with non-specific binding subtracted (Mean): IL23R + NL-IL12RB1; for BRET ratio with non-specific binding subtracted (Mean): Figure 2 sheet Panels f, h
T1 construct: untagged full-length IL23R could be measured in the membranes of living cells; expressed in transfected cells; host or cells: HEK293T, transient transfection
Excerpt: A standard curve was used to predict the expression level of NanoLuc labelled receptor in each experiment (Supplementary Fig. 1).
Fig. 2 Creation and characterisation of a fluorescent cyclic peptide probe for IL23R. […] Data are normally mean ± SEM from five independent experiments. Details on absolute number of data points included for each concentration are provided in the associated Source Data file. In each individual saturation experiment triplicate determinations were normally made for total binding and duplicate measurements were made for non-specific binding.
(§1) Media was removed from white 96-well microplates containing transfected cells and replaced with fluoroprobe in the presence or absence of antagonist in 50 μL Hanks Balanced Salt Solution (HBSS) with 1 mg/mL BSA (Merck). After a 1-hour incubation at 37 °C without CO2, 5 μL of HBSS containing 77 μM furimizine was added to each well (final concentration 7 μM), the plate incubated for 5-minutes and the BRET signal measured using a PheraStar FS plate reader (BMG Labtech; data acquisition software version 5.41; MARS analysis software version 3.32) with a 450 ± 30 nm and >550 nm long pass filters.
Ligand binding data were fitted with the equation:2 BRETratio=Bmax[A]/([A]+KD)+(BA+C). Where ‘Bmax’ is the maximum specific binding BRET signal, ‘[A]’ is fluorescent probe concentration, ‘B’ is the non-specific binding component’s slope and ‘C’ is the Y intercept.
Specific binding data was generated by subtracting the BRET values gained in the presence of an excess of unlabelled probe from the BRET ratios gained in the absence of unlabelled probe. Specific binding data were fit using the equation:3 Y=Bmax[B]/(B+KD) where ‘Bmax’ is the maximum specific binding signal of the curve and ‘[B]’ is the concentration of fluorescent probe.

[2] = molecular target: HiBit-IL23R and LgBit-IL12Rβ1 (Homo sapiens, UniProt Q5VWK5); assay: NanoBiT BRET binding assay; design: expressed in transfected cells; host or cells: HEK293T, transient transfection; details: for BRET ratio, Non-specific (Mean) / BRET ratio, Specific (Mean): Fig. 3b, NanoBiT complemented receptors; for % of P630-TMR specific Bmax (Mean): Fig. 3d, HiBit-IL23R + LgBit-IL12RB1
Excerpt: Finally, we utilised a NanoBiT BRET system in which a complemented luciferase with fragments bound to both receptor subunits (Fig. 3) can be used as a BRET donor to measure interactions with binary receptor complexes.
Data in b are mean ± SEM from three independent experiments. In each individual experiment, triplicate determinations were made for total binding and duplicate or triplicate determinations made for non-specific binding. Data in c are the mean values obtained in five independent experiments, each conducted with six replicates. […] Data in d are the mean ± SEM from five (NL-IL23R and NL-23R + IL12Rβ1) or three (HiBit-IL23R + LgBit-IL12Rβ1) independent experiments. Source data are provided as a Source Data file.
as §1

HiBit-IL23R and LgBit-IL12Rβ1, sequence (Q5VWK5 24-629, other chains not shown): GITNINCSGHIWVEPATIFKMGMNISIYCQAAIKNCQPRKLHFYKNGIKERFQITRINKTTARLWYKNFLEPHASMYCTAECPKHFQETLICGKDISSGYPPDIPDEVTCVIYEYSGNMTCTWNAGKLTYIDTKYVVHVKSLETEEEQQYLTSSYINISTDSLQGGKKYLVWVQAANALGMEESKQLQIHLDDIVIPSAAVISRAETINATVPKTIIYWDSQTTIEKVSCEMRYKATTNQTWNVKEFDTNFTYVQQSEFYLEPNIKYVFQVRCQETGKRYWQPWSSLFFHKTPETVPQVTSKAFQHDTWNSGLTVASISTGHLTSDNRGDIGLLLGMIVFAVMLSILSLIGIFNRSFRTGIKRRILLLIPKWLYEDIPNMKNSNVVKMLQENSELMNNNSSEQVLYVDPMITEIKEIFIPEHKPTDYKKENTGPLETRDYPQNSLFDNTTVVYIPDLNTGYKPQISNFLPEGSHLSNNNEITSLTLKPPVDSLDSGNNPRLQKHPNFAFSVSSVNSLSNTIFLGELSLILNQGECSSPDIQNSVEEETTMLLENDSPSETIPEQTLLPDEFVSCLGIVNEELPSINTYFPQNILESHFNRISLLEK
T1 sequence (Q5VWK5 24-629, other chains not shown): as above

BRET ratio, Non-specific (Mean) ([1]; NL-IL12Rβ1 and IL23R, P630-TMR 0.457247 nM): 0.245
BRET ratio, Non-specific (Mean) ([1]; NL-IL12Rβ1 and IL23R, P630-TMR 1.37174 nM): 0.2494
BRET ratio, Non-specific (Mean) ([1]; NL-IL12Rβ1 and IL23R, P630-TMR 4.11523 nM): 0.2477
BRET ratio, Non-specific (Mean) ([1]; NL-IL12Rβ1 and IL23R, P630-TMR 12.3457 nM): 0.2499
BRET ratio, Non-specific (Mean) ([1]; NL-IL12Rβ1 and IL23R, P630-TMR 37.037 nM): 0.2505
BRET ratio, Non-specific (Mean) ([1]; NL-IL12Rβ1 and IL23R, P630-TMR 111.111 nM): 0.2497
BRET ratio, Non-specific (Mean) ([1]; NL-IL12Rβ1 and IL23R, P630-TMR 1000 nM): 0.2599
BRET ratio, Non-specific (Mean) ([1]; NL-IL12Rβ1 and IL23R, P630-TMR 3000 nM): 0.2729
BRET ratio, Non-specific (Mean) ([1]; NL-IL12Rβ1 and IL23R, P630-TMR […]): 0.2519
% maximum BRET ratio (Mean) ([1]; P630-TMR 0.457247 nM): 20.2943%
% maximum BRET ratio (Mean) ([1]; P630-TMR 1.37174 nM): 3.037%
% maximum BRET ratio (Mean) ([1]; P630-TMR 4.11523 nM): 30.2039%
% maximum BRET ratio (Mean) ([1]; P630-TMR 12.3457 nM): 28.4128%
% maximum BRET ratio (Mean) ([1]; P630-TMR 37.037 nM): 44.6085%
% maximum BRET ratio (Mean) ([1]; P630-TMR 111.111 nM): 87.2944%
% maximum BRET ratio (Mean) ([1]; P630-TMR 1000 nM): 109.773%
% maximum BRET ratio (Mean) ([1]; P630-TMR 3000 nM): 100.001%
BRET ratio with non-specific binding subtracted (Mean) ([1]; P630-TMR 0.457247 nM): 0.00447
BRET ratio with non-specific binding subtracted (Mean) ([1]; P630-TMR 1.37174 nM): 0.001281
BRET ratio with non-specific binding subtracted (Mean) ([1]; P630-TMR 4.11523 nM): 0.006719
BRET ratio with non-specific binding subtracted (Mean) ([1]; P630-TMR 12.3457 nM): 0.00665
BRET ratio with non-specific binding subtracted (Mean) ([1]; P630-TMR 37.037 nM): 0.009959
BRET ratio with non-specific binding subtracted (Mean) ([1]; P630-TMR 111.111 nM): 0.01927
BRET ratio with non-specific binding subtracted (Mean) ([1]; P630-TMR 1000 nM): 0.02313
BRET ratio with non-specific binding subtracted (Mean) ([1]; P630-TMR 3000 nM): 0.02294
Kd ([1]; NL-IL12Rβ1 and IL23R, mean ± SEM): 0.0552 ± 0.0105 µM
Bmax, fold lower than NL-IL23R with IL12Rβ1 ([1]; NL-IL12Rβ1 with IL23R): 42.53 fold
BRET ratio, Non-specific (Mean) ([2]; P630-TMR 1.37174 nM): 0.09875
BRET ratio, Specific (Mean) ([2]; P630-TMR 1.37174 nM): 0.105
BRET ratio, Non-specific (Mean) ([2]; P630-TMR 4.11523 nM): 0.09641
BRET ratio, Specific (Mean) ([2]; P630-TMR 4.11523 nM): 0.1138
BRET ratio, Non-specific (Mean) ([2]; P630-TMR 12.3457 nM): 0.09986
BRET ratio, Specific (Mean) ([2]; P630-TMR 12.3457 nM): 0.141
BRET ratio, Non-specific (Mean) ([2]; P630-TMR 37.037 nM): 0.1012
BRET ratio, Specific (Mean) ([2]; P630-TMR 37.037 nM): 0.1913
BRET ratio, Non-specific (Mean) ([2]; P630-TMR 111.111 nM): 0.1006
BRET ratio, Specific (Mean) ([2]; P630-TMR 111.111 nM): 0.2562
BRET ratio, Non-specific (Mean) ([2]; P630-TMR 1000 nM): 0.1066
BRET ratio, Specific (Mean) ([2]; P630-TMR 1000 nM): 0.3269
BRET ratio, Non-specific (Mean) ([2]; P630-TMR 3000 nM): 0.1175
BRET ratio, Specific (Mean) ([2]; P630-TMR 3000 nM): 0.3365
% of P630-TMR specific Bmax (Mean) ([2]; P630-TMR 1.37174 nM): 2.813%
% of P630-TMR specific Bmax (Mean) ([2]; P630-TMR 4.11523 nM): 8.07%
% of P630-TMR specific Bmax (Mean) ([2]; P630-TMR 12.3457 nM): 19.2912%
% of P630-TMR specific Bmax (Mean) ([2]; P630-TMR 37.037 nM): 41.1077%
% of P630-TMR specific Bmax (Mean) ([2]; P630-TMR 111.111 nM): 71.2465%
% of P630-TMR specific Bmax (Mean) ([2]; P630-TMR 1000 nM): 99.3007%
% of P630-TMR specific Bmax (Mean) ([2]; P630-TMR 3000 nM): 100%
Kd ([2]; HiBit-IL23R and LgBit-IL12Rβ1, mean ± SEM): 0.0535 ± 0.0044 µM
SMILES: COc1ccc(C[C@H](NC(=O)[C@H]2NC(=O)[C@H](CCC(N)=O)NC(=O)[C@H](Cc3c[nH]c4ccccc34)NC(=O)[C@H]([C@@H](C)O)NC(=O)[C@H](CC(N)=O)NC(=O)[C@@H](NC(C)=O)C(C)(C)SSC2(C)C)C(=O)N[C@@H](Cc2ccc3ccccc3c2)C(=O)NC(C)(C)C(=O)N[C@@H](CCC(=O)O)C(=O)N[C@@H](CC(N)=O)C(=O)N[C@@H](CC(N)=O)C(=O)N[C@@H](CCCCNC(=O)c2ccc3c(c2)C(=O)OC32c3ccc(N(C)C)cc3Oc3cc(N(C)C)ccc32)C(N)=O)cc1 [P630-TMR] (Ac-[Pen]NTWQ[Pen]Y(Me)[2Nal][Aib]ENNK(5TAMRA)-NH2; disulfide 1-6)
